{"source": "paper PMC5702947", "about": "“A Study on Cytotoxic and Apoptotic Potential of a Triterpenoid Saponin (3-O-α-L-Arabinosyl Oleanolic Acid) Isolated from Schumacheria castaneifolia Vahl in Human Non-Small-Cell Lung Cancer (NCI-H292) Cells” (BioMed Research International, 2017)", "key": {"NCI-H292 cells [1]": {"test_system": "NCI-H292 cells", "experiment": "Sulforhodamine B (SRB) cytotoxicity assay in NCI-H292 cells", "type": "cell-based", "settings": "Homo sapiens", "experimental": "(§1) Sulphorhodamine B (SRB) assay was used to dertmine cytotoxic effects of the compound (3-O-L-AO) in NCI-H292 and MRC-5 cells. Cells (5 × 10^3/well) were seeded in 96-well tissue culture plates and incubated for 24 h. After 24 h incubation, cells were treated with 3-O-L-AO (0.78–25 μg/mL) and incubated for 24, 48, and 72 h. Paclitaxel (0.47–15 μg/mL) was used as the positive control. Cells were washed with PBS for three times and then fixed by adding 50% trichloroacetic acid (TCA) to each well followed by washing five times with tap water. After fixing, cells were stained with 0.4% SRB dye for 20 min followed by washing five times with 1% acetic acid. Tris-base (10 mM) was then added to each well and plates were kept on a plate shaker for 1 h at room temperature. The absorbance was measured using a microplate reader (Synergy HT, USA) at wavelength of 540 nm."}, "MRC-5 cells [2]": {"test_system": "MRC-5 cells", "experiment": "Sulforhodamine B (SRB) cytotoxicity assay in MRC-5 cells", "type": "cell-based", "settings": "Homo sapiens", "experimental": "as §1"}, "NCI-H292 cells [3]": {"test_system": "NCI-H292 cells", "experiment": "Cytomorphological changes under phase-contrast microscope, NCI-H292 cells", "type": "cell-based, human", "settings": "NCI-H292 cells, 1.5, 6.25 and 12.5 μg/mL, 24, 48, 72 h, phase-contrast images", "text": "(§2) Morphological changes of lung cancer cells (NCI-H292) and normal fibroblasts (MRC-5) cells after exposure to 3-O-L-AO were captured using inverted phase-contrast microscope (Olympus CKX41, Japan)."}, "MRC-5 cells [4]": {"test_system": "MRC-5 cells", "experiment": "Cytomorphological changes under phase-contrast microscope, MRC-5 cells", "type": "cell-based, human", "settings": "MRC-5 cells, 1.5, 6.25 and 12.5 μg/mL, 24, 48, 72 h, phase-contrast images", "text": "as §2"}, "NCI-H292 cells [5]": {"test_system": "NCI-H292 cells", "experiment": "AO/EB staining, apoptosis related morphology under fluorescence microscopy", "type": "cell-based, human", "settings": "NCI-H292 cells, 2.5, 5 and 10 μg/mL, 24 h", "experimental": "NCI-H292 lung cancer cells (2 × 10^4 cells/well) cultured on coverslips were treated with 3-O-L-AO (2.5, 5, and 10 μg/mL) for 24 h. After incubation, cells were washed with phosphate buffer saline (PBS) and fixed with 4% formaldehyde for 15 min. Fixed cells were again washed with PBS and stained with acridine orange/ethidium bromide as previously described by us. Stained cells were observed under a fluorescence microscope (Olympus, BX51TRF, Japan)."}, "caspase 3/7": {"test_system": "caspase 3/7", "experiment": "Caspase-Glo 3/7 activity assay in NCI-H292 cells", "type": "cell-based, human", "settings": "NCI-H292 cells, 0.5, 1 and 2 μg/mL (all three doses), 24 h", "experimental": "Caspase 3/7 activity in NCI-H292 cells was measured using the Caspase-Glo 3/7 assay kit according to manufacturer's protocol. Prior to the assay, NCI-H292 cells were treated with three doses of 3-O-L-AO (0.5, 1, and 2 μg/mL) and incubated for 24 h."}, "p53 gene": {"test_system": "p53 gene", "experiment": "Quantitative real-time PCR, p53 gene expression in NCI-H292 cells", "type": "cell-based, human", "settings": "24 h", "experimental": "(§3) NCI-H292 cells (2 × 10^5 cells/mL) grown in T-25 tissue culture flasks were treated with 3-O-L-AO (1 and 2 μg/mL) and incubated for another 24 h. TRIzol reagent was used to extract RNA as described by Ediriweera et al., 2016 [13]. Extracted RNA (2 μg) was incubated with 50 ng of random primers and 13.5 μL of PCR water for 5 min at 70°C. cDNA synthesis was then carried out after mixing with a maxter mix containing 5 μL MMLV (Moloney Murine Leukemia Virus Reverse Transcriptase) reaction buffer, 5 μL 10 mM dNTP mix, 25 units of RNasin, and 200 units of MMLV RT enzyme, following incubation at 37°C for 60 min, in a total volume of 25 μL. Stratagene Mx3000P real-time PCR system (Agilent Technologies, CA, USA) was used to carry out real-time PCR. Primers used have been previously described. For real-time PCR, 2 μL of cDNA was mixed with Master Mix containing 0.5 μL of forward and reverses primers, 12.5 μL SYBR Green Master Mix (Eurogentec, Seraing, Liège, Belgium), and 9.5 μL PCR water. The thermal cycle programme set for real-time PCR include stage 1, 95°C for 10 min and stage two consisting of three steps: denaturation at 95°C for 30 s, annealing at 56°C for 1 min, and extension at 72°C for 30 s and stage 2 was repeated for 40 cycles. […] Gene expression was quantified using the method described by Livak and Schmittgen, 2001 [14]."}, "Bax gene": {"test_system": "Bax gene", "experiment": "Quantitative real-time PCR, Bax gene expression in NCI-H292 cells", "type": "cell-based, human", "settings": "1 and 2 μg/mL (both doses), 24 h", "experimental": "as §3"}, "survivin gene": {"test_system": "survivin gene", "experiment": "Quantitative real-time PCR, survivin gene expression in NCI-H292 cells", "type": "cell-based, human", "settings": "1 and 2 μg/mL (both doses), 24 h, downregulation not significant", "experimental": "as §3"}, "[6]": {"test_system": "reactive oxygen species (ROS)", "experiment": "Reactive oxygen species (ROS) level, NBT assay in NCI-H292 cells", "type": "cell-based, human", "settings": "NCI-H292 cells, 0.5, 1 and 2 μg/mL (all three doses), 24 h, dose dependant", "experimental": "(§4) Evaluation of oxidative stress markers (reactive oxygen species (ROS), glutathione-S-transferase (GST), and glutathione (GSH)) after exposure to 3-O-L-AO in NCI-H292 cells was determined as previously described by us.\nNCI-H292 cells (20,000 cells/well) were plated in 96-well cell plates and incubated for 24 h. Following incubation, cells were treated with 3-O-L-AO (0.5, 1, and 2 μg/mL) and incubated for 24 h. Nitro Blue Tetrazolium (NBT) solution (1 mg/mL, 20 μL) was then added to each well and incubated for 1 h at 37°C. Blue formazan formed was then solubalized after adding 100 μL of dimethyl sulfoxide (DMSO) and the absorbance was read at 620 nm."}, "glutathione (GSH)": {"test_system": "glutathione (GSH)", "experiment": "Glutathione (GSH) levels in NCI-H292 cells", "type": "cell-based, human", "settings": "NCI-H292 cells, 0.5, 1 and 2 μg/mL (all three doses), 24 h, p < 0.0001", "experimental": "as §4\nNCI-H292 cells were (1 × 10^5 cells/well) exposed to 3-O-L-AO (0.5, 1, and 2 μg/mL) for 24 h. After incubation, cells were collected by trypsinization. Collected cell pellets were mixed with ice-cold KCl (2 mL) and 0.5 M EDTA (1 mL) and sonicated for […]. Cell lysate was then centrifuged at 10,000 g for 15 min to obtain a clear supernatant and it was kept on ice throughout the experiments. Supernatent (75 μL) was mixed with 75 μL of 5% sulfosalicylic acid, 20 μL of 4% DTNB [5,5-dithiobis-(2-nitrobenzoic acid)], and 30 μL of 0.1 M potassium phosphate buffer (pH 8.0) and incubated for 30 min. Absorbance was then recorded at 412 nm and glutathione levels were calculated as nM/mg of cell lysate protein with the help of a GSH standard curve."}, "[7]": {"test_system": "glutathione-S-transferase (GST)", "experiment": "Glutathione-S-transferase (GST) activity in NCI-H292 cell lysates", "type": "cell-based, human", "settings": "NCI-H292 cells, 0.5, 1 and 2 μg/mL (all three doses), 24 h, p < 0.05 to p < 0.0001", "experimental": "as §4\nAn aliquot of cell lysates prepared for GSH assays was used to analyse GST activity. Glutathione and CDNB (1-chloro-2,4-dinitrobenzene) were served as substrates in this assay. A mixture was prepared by mixing 490 μL of PBS (pH 6.5), 5 μL of CDNB (100 mM), and 5 μL of GSH (100 mM); 180 μL of this mixture was mixed with 20 μL of cell lysate and incubated for 5 min at 37°C. Absorbance was recoreded at 340 nm for 5 min (1-minute time intervals). Quantity of GST catalyzing the oxidation of 1 millimole of 1-chloro-2,4-dinitrobenzene per minute at 37°C was considerd as one unit of GST activity."}, "Staphylococcus aureus": {"test_system": "Staphylococcus aureus", "design": "method as in earlier work", "settings": "cited from earlier work"}, "Escherichia coli": {"test_system": "Escherichia coli", "design": "method as in earlier work", "settings": "cited from earlier work"}}, "data": [{"molecule": "CC1(C)CCC2(C(=O)O)CCC3(C)C(=CCC4C5(C)CCC(OC6OCC(O)C(O)C6O)C(C)(C)C5CCC43C)C2C1", "note": "[3-O-L-AO, 3-O-α-L-arabinosyl oleanolic acid]", "values": [{"measurement": "IC50", "setting": "NCI-H292 cells [1]; 24 h incubation", "result": 4.33, "unit": "mg/L"}, {"measurement": "IC50", "setting": "NCI-H292 cells [1]; 48 h incubation", "result": 2.69, "unit": "mg/L"}, {"measurement": "IC50", "setting": "NCI-H292 cells [1]; 72 h incubation", "result": 1.5, "unit": "mg/L"}, {"measurement": "IC50", "setting": "MRC-5 cells [2]; MRC5, 24 h incubation", "result": 5.4, "unit": "mg/L"}, {"measurement": "IC50", "setting": "MRC-5 cells [2]; MRC5, 48 h incubation", "result": 4.59, "unit": "mg/L"}, {"measurement": "IC50", "setting": "MRC-5 cells [2]; MRC5, 72 h incubation", "result": 2.83, "unit": "mg/L"}, {"measurement": "Cytomorphological changes of lung cancer cells", "setting": "NCI-H292 cells [3]", "result": "decreased cell volume and rounding up cells"}, {"measurement": "Cytomorphological changes of normal lung fibroblast cells", "setting": "MRC-5 cells [4]", "result": "decreased cell volume and rounding up cells"}, {"measurement": "Apoptotic induction (AO/EB staining)", "setting": "NCI-H292 cells [5]", "result": "dose dependent apoptotic induction"}, {"measurement": "Caspase 3/7 activity compared to untreated control", "setting": "caspase 3/7", "result": "Significant (p < 0.0001) increase"}, {"measurement": "p53 gene expression", "setting": "p53 gene; 1 μg/mL", "result": "upregulation"}, {"measurement": "p53 gene expression", "setting": "p53 gene; 2 μg/mL", "result": "significant (p < 0.05) upregulation"}, {"measurement": "Bax gene expression", "setting": "Bax gene", "result": "Significant (p < 0.001 and p < 0.0001) upregulation"}, {"measurement": "survivin gene expression", "setting": "survivin gene", "result": "downregulation"}, {"measurement": "Reactive oxygen species (ROS) level", "setting": "[6]", "result": "significantly (p < 0.05 to p < 0.0001) increased"}, {"measurement": "GSH levels", "setting": "glutathione (GSH)", "result": "Significant reduction"}, {"measurement": "GST levels (activity)", "setting": "[7]", "result": "increase"}, {"measurement": "Antibacterial effects against Staphylococcus aureus", "setting": "Staphylococcus aureus", "result": "Moderate antibacterial effects"}, {"measurement": "Antibacterial effects against Escherichia coli", "setting": "Escherichia coli", "result": "Moderate antibacterial effects"}]}, {"molecule": "CC(=O)O[C@H]1C(=O)[C@@]2(C)[C@H]([C@H](OC(=O)c3ccccc3)[C@]3(O)C[C@H](OC(=O)[C@H](O)[C@@H](NC(=O)c4ccccc4)c4ccccc4)C(C)=C1C3(C)C)[C@]1(OC(C)=O)CO[C@@H]1C[C@@H]2O", "note": "[Paclitaxel, reference compound]", "values": [{"measurement": "IC50", "setting": "NCI-H292 cells [1]; 24 h incubation", "result": 8.37, "unit": "mg/L"}, {"measurement": "IC50", "setting": "NCI-H292 cells [1]; 48 h incubation", "result": 3.28, "unit": "mg/L"}, {"measurement": "IC50", "setting": "NCI-H292 cells [1]; 72 h incubation", "result": 1.59, "unit": "mg/L"}, {"measurement": "IC50", "setting": "MRC-5 cells [2]; MRC5, 24 h incubation", "result": 1.51, "unit": "mg/L"}, {"measurement": "IC50", "setting": "MRC-5 cells [2]; MRC5, 48 h incubation", "result": 0.96, "unit": "mg/L"}, {"measurement": "IC50", "setting": "MRC-5 cells [2]; MRC5, 72 h incubation", "result": 0.35, "unit": "mg/L"}]}]}
